Test results reported in patent US6653354B2, “NMDA antagonist comprising xenon” (priority 1999, dated 2003).
Entries after “also recorded” stand apart in the source; their conditions may differ.

Columns and labels:
GABAA receptors = biological target: T1, GABAA receptors (Bos taurus, UniProt P08219+P08220+P22300); experiment: Currents activated by GABA in voltage-clamped PA3 cells stably expressing defined GABA subunits; format: cell-based; settings: 100% xenon
T1 construct: expressed in transfected cells
T1 sequence (P08219 28-456): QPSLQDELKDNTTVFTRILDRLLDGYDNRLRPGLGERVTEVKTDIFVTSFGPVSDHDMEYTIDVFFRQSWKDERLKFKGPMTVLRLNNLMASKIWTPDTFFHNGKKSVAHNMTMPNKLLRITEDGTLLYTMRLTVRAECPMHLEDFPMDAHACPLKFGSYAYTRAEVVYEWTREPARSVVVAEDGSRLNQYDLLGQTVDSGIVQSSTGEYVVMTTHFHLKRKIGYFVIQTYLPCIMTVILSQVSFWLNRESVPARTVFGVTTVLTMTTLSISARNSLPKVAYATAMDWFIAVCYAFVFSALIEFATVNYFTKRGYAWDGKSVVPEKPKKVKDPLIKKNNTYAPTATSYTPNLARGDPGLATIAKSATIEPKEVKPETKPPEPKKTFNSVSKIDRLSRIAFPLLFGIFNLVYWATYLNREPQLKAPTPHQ
T1 sequence (P08220 26-474): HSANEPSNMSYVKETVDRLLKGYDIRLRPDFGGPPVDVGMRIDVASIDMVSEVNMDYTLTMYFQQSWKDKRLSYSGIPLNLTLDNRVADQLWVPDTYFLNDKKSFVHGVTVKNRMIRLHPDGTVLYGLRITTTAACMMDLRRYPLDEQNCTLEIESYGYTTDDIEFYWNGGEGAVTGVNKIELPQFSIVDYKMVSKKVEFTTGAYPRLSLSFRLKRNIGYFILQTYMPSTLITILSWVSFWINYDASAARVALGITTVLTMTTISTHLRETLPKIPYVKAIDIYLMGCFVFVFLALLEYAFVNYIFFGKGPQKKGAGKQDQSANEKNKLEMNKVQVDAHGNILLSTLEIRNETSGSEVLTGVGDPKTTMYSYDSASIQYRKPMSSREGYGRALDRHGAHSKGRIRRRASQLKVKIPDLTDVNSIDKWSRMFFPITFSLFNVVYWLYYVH
T1 sequence (P22300 40-475): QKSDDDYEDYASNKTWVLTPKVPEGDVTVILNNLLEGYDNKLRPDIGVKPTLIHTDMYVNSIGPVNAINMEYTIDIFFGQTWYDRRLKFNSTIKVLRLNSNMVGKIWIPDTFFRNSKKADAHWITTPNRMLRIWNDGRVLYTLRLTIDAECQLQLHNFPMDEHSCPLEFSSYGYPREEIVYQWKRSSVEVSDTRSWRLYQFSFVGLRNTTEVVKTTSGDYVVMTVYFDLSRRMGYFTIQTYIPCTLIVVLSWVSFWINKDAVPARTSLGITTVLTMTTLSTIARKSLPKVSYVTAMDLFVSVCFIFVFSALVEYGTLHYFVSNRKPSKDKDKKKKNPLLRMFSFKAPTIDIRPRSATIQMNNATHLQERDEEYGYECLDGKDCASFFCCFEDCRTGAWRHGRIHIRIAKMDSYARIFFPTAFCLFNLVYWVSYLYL
Excerpt: Studies carried out by the applicant have shown that xenon has virtually no effect on GABAA receptors.

NMDA receptors = format: cell-based, rat; settings: 80% xenon
[1] = test system: cortical neuronal-glial co-culture injured with glutamate; experiment: Glutamate-induced neuronal injury in neuronal-glial co-culture (LDH release); format: cell-based, mouse
Procedure: (§1) Dissociated murine cortical cell cultures were prepared using whole cerebral neocortices from fetal mice (14-17 days of gestation). Cortical glial cell cultures were prepared from early postnatal mice. After halting non-neuronal cell division with cytosine arabinoside the surviving cortical neuronal cells were plated onto the glial cell background and co-cultured.
15 days after originally harvesting the cortical cells, the co-culture plates were exposed at room temperature to glutamate 10-1,000 μM, in CCS from 10-30 minutes. After carefully washing out with CCS, the cells were incubated for 6-24 hours in a Eagle's minimal essential medium free of glutamate or lactate dehydrogenase (LDH) but supplemented with glucose 25 mM, and NaHCO3 38 mM at 37° C. in humidified CO2 (5%) atmosphere. The degree of injury was determined by measuring the LDH released into the medium. A dose-response curve of glutamate-induced injury is shown in FIG. 11, as described hereinbefore.
75% of one atmosphere of xenon was delivered to the cells during and after exposure to 75 μM glutamate, a concentration which produces a near maximal injury. The degree of injury was determined by measuring the LDH released into the medium (after correcting for “baseline” LDH release). Xenon reduced the injury produced by glutamate by more than 35%; when xenon was continued after glutamate exposure, the injury was further reduced by more than 60%. The results of the protective effect of xenon are illustrated in FIG. 13, as described hereinbefore.

[2] = test system: co-culture injured by oxygen/glucose or oxygen deprivation; experiment: Oxygen/glucose or oxygen deprivation injury in co-culture (LDH release); format: cell-based, mouse; settings: 75 min replacement of O2 with N2; xenon replacing N2
Procedure: Anoxia was performed on a co-culture by a 75 min replacement of O2 with N2. The xenon and N2 concentrations were changed reciprocally such that their aggregate was 95% of one atmosphere (5% CO2 in either group). After 24 h the culture medium was harvested and assayed for LDH. Data are expressed as the % mean±SD (n=3) of LDH released into the medium over the 24 h period normalised to LDH release when N2 alone is present.
as §1

rhesus monkeys = experiment: MAC in rhesus monkeys; format: in vivo; settings: 37° C.
Procedure: (§2) The gaseous concentration of xenon which prevents a response to a painful stimulus (i.e. MAC) appears to vary among species, being 71% atm in humans (Cullen SC et al, Anesthesiology 1969, 31:305-309), 98% atm in rhesus monkeys (Whitehurst S L et al, J. Neurosurg. Anesthesiol. 1994, 6:275-279) and 161% atm in rats (Koblin D D et al, Anesth. Analg. 1998, 87:419-424). When these values are converted to free aqueous concentrations at 37° C. (Franks N P et al, Br. J. Anaesth. 1993, 71:65-76; Franks N P et al, Anesthesiology, 1996, 84:716-720) using an Ostwald water/gas partition coefficient of 0.0887 (Weathersby P K et al, Undersea Biomed. Res. 1980, 7:277-296), the values obtained are 2.5 mM, 3.4 mM and 5.6 mM for humans, monkeys and rats respectively, with the average value being 3.8 mM. For the experiments described herein, performed at room temperature, the concentration of xenon present in the standard test solution was 3.4 mM. […] This is illustrated with representative traces in FIG. 2.

rats [3] = experiment: MAC in rats; format: in vivo; settings: 37° C.
Procedure: as §2

humans, monkeys and rats = experiment: MAC as free aqueous concentration, average of humans, monkeys and rats; format: in vivo; settings: 37° C.
Procedure: as §2

rats [4] = settings: cited from earlier work
[5] = cited from earlier work

[Xe] [xenon]
effect on currents activated by 3 μM GABA (GABAA receptors): not significantly affected | change of NMDA EC50 or Hill coefficient in presence of xenon (NMDA receptors): no significant change; also recorded: does not significantly change | protection against excitotoxicity (LDH release) ([1]; 100 μM glutamate for 10 minutes, low, sub-anaesthetic concentrations of xenon, LDH after 6 hours): Highly significant protection | reduction of the injury produced by glutamate (LDH release) ([1]; 75% of one atmosphere xenon during exposure to 75 μM glutamate): more than 35% | reduction of the injury produced by glutamate (LDH release) ([1]; 75% xenon continued after 75 μM glutamate exposure): more than 60% | protection against injury induced by oxygen/glucose or oxygen alone deprivation (LDH release over 24 h) [2]: dose-dependent protective effect | MAC converted to free aqueous concentration (rhesus monkeys): 3.4 mM | MAC converted to free aqueous concentration (rats [3]): 5.6 mM | MAC as free aqueous concentration, average value (humans, monkeys and rats): 3.8 mM | gaseous concentration which prevents a response to a painful stimulus (MAC) (rats [4]): 161 % atm | Ostwald water/gas partition coefficient ([5]; 37° C.): 0.0887 | Bunsen water/gas partition coefficient ([5]; room temperature): 0.0965
